Assay results reported in patent publication US8188059B2, “Compounds and methods for modulating expression of GCGR” (Isis Pharmaceuticals, Inc., priority 2006, dated 2012).
Strand notation (5' to 3'): a small letter for the sugar, then the base; units joined by * are phosphorothioate-linked, units joined directly phosphodiester-linked; [ ] holds rarer units or linkages, { } end groups; capitals alone tell only the bases. e = 2'-O-(2-methoxyethyl) (MOE); [5mC] = 5-methylcytosine; d = 2'-deoxy (DNA)

Assays:
[1] = system: PTP1B mRNA; test: Antisense inhibition of human PTP1B in HepG2 cells at 25 nM (Example 24, Table 85); assay type: cell-based
Method: Short antisense compounds targeted to a PTP1B nucleic acid were tested for their effects on PTP1B mRNA in vitro. Cultured HepG2 cells at a density of 10000 cells per well in a 96-well plate were treated with 25 nM of antisense oligonucleotide. After the treatment period, RNA was isolated from the cells and PTP1B mRNA levels were measured by quantitative real-time PCR, as described herein. PTP1B mRNA levels were adjusted according to total RNA content as measured by RIBOGREEN®. Results are presented as percent inhibition (% Ihib) of PTP1B, relative to untreated control cells.

[2] = system: PTP1B mRNA; test: Antisense inhibition of human PTP1B in HuVEC cells at 3 nM (Example 23, Table 84); assay type: cell-based
Method: Short antisense compounds targeted to a PTP1B nucleic acid were tested for their effects on PTP1B mRNA in vitro. Cultured HuVEC cells at a density of 5000 cells per well in a 96-well plate were treated as described herein with 3 nM of short antisense compound. After the treatment period, RNA was isolated from the cells and PTP1B mRNA levels were measured by quantitative real-time PCR, as described herein. PTP1B mRNA levels were adjusted according to total RNA content as measured by RIBOGREEN®. Results are presented as percent inhibition of PTP1B (% Inhib), relative to untreated control cells.

[3] = system: GCGR mRNA; test: Antisense inhibition of GCGR in HepG2 cells, 25-200 nM (Example 21, Table 79); assay type: cell-based, human; settings: for percent reduction in GCGR mRNA: HepG2 cells, relative to untreated control cells
Method: Short antisense compounds targeted to a GCGR nucleic acid were tested for their effects on GCGR mRNA in vitro.
Cultured HepG2 cells at a density of 10000 cells per well in a 96-well plate were treated as described herein with 25, 50, 100 or 200 nM of antisense oligonucleotide. After the treatment period, RNA was isolated from the cells and GCGR mRNA levels were measured by quantitative real-time PCR, as described herein. GCGR mRNA levels were adjusted according to total RNA content as measured by RIBOGREEN®. Results are presented as percent reduction in GCGR mRNA, relative to untreated control cells.

[4] = system: rat SGLT2 mRNA; test: Rat SGLT2 mRNA levels in kidney, ISIS 379692 and ISIS 388625, Sprague-Dawley rats (Example 15, Table 70); assay type: in vivo; settings: i.p. twice per week for three weeks
Method: The effect of ISIS 379692 1-10-1 MOE gapmer and ISIS 388625 MOE 2-8-2 gapmer (see Table 70) on rat SGLT2 mRNA levels in vivo. […] Rats were sacrificed 48 hours following last administration and evaluated for SGLT2 levels in kidney. Target levels were determined by RT, real-time PCR as described by other examples herein. PCR results were normalized to an internal ISIS control.

[5] = system: mouse SGLT2 mRNA; test: Mouse SGLT2 mRNA levels in kidney, MOE versus Methyleneoxy BNA gapmers, Balb/c mice (Example 15, Table 69); assay type: in vivo
Method: The effect of ISIS 379692 1-10-1 MOE gapmer and ISIS 388625 2-8-2 MOE gapmer are compared with the effect of ISIS 392170 1-10-1 Methyleneoxy BNA Gapmer and ISIS 392173 2-8-2 Methyleneoxy BNA Gapmer (see Table 69) on mouse SGLT2 mRNA levels in vivo. Data are taken from three experiments in which male 6-week old Balb/c mice were dosed twice per week for three weeks with 5, 25 and 125 nmol/kg of either the ISIS 379692 1-10-1 MOE gapmer or the ISIS 388625 2-8-2 MOE gapmer given by intraperitoneal injection. Mice were sacrificed 48 hours following last administration and evaluated for SGLT2 mRNA levels in kidney. Target levels were determined by RT, real-time PCR as described by other examples herein. PCR results were normalized to an internal ISIS control. The data are expressed as percent change (“+” indicates an increase, “−” indicates a decrease) relative to saline treated animals and are illustrated in Table 69.

[6] = system: rat SGLT2 mRNA; test: Rat SGLT2 mRNA levels in kidney, 1-10-1 gapmers at 250 nmol/kg, Sprague-Dawley rats (Example 14, Table 66); assay type: in vivo; settings: 250 nmol/kg i.p. twice per week for three weeks; Sprague-Dawley rats; kidney
Method: The effect of the above 1-10-1gapmers (see Table 64 above) on rat SGLT2 mRNA levels. Data are taken from four experiments in which male Sprague-Dawley rats (170-200 g) were dosed twice per week for three weeks with 250 nmol/kg given by intraperitoneal injection. Rats were sacrificed 48 hours following last administration and evaluated for SGLT2 mRNA levels in kidney. Target levels were determined by RT, real-time PCR as described by other examples herein. PCR results were normalized to an internal ISIS control.

[7] = system: rat SGLT2 mRNA; test: Rat SGLT2 mRNA levels in kidney, 1-10-1 and 1-10-2 MOE gapmers, Sprague-Dawley rats (Example 13, Table 63); assay type: in vivo
From the text: 1-10-1 and 1-10-2 MOE gapmer antisense compounds, provided in Table 62, were designed to target different regions of the mouse or rat SGLT2 RNA. All short antisense compounds in Table 62 are chimeric oligonucleotides (“gapmers”) either 12 or 13 nucleotides in length, composed of a central “gap” segment consisting of ten 2′-deoxynucleotides, which are flanked on the 5′ side by a one-nucleoside “wing” and on the 3′ side by a two or one-nucleotide “wing”. […] All cytidine residues are 5-methylcytidines.
The short antisense compounds were analyzed for their effect on rat SGLT2 mRNA levels. Data are ranges taken from three experiments in which Male Sprague-Dawley rats (170-200 g) were dosed twice per week for three weeks with 450, 150 or 50 nmol/kg of either a 1-10-1 or 1-10-2 MOE gapmer given by intraperitoneal injection. Rats were sacrificed 48 hours following last administration and evaluated for SGLT2 mRNA levels in kidney. Target levels were determined by RT, real-time PCR as described by other examples herein. PCR results were normalized to an internal ISIS control.

[8] = system: mouse SGLT2 mRNA; test: Mouse SGLT2 mRNA levels in kidney, additional 1-10-1 and 2-8-2 MOE gapmers, Balb/c mice (Example 15, Table 68); assay type: in vivo
[9] = system: mouse SGLT2 mRNA; test: Mouse SGLT2 mRNA levels in kidney, 1-10-1 MOE gapmers, Balb/c mice (Example 14, Table 65); assay type: in vivo
Method: The short antisense compounds were analyzed for their effect on mouse SGLT2 mRNA levels. Data was taken from three experiments in which Male 6-week old Balb/c mice were dosed twice per week for two weeks with 450, 150, or 50 nmol/kg of one of the above 1-10-1 MOE gapmers given by intraperitoneal injection. Mice were sacrificed 48 hours following last administration and evaluated for SGLT2 mRNA levels in kidney. Target levels were determined by RT, real-time PCR as described by other examples herein. PCR results were normalized to an internal ISIS control.

[10] = system: monkey GCGR mRNA; test: Antisense inhibition of GCGR in primary monkey hepatocytes, 25-200 nM (Example 21, Table 80); assay type: cell-based; settings: relative to untreated control cells
Method: Additional short antisense compounds targeted to a GCGR nucleic acid were tested for their effects on monkey GCGR mRNA in vitro. Cultured primary monkey hepatocytes were treated as described herein with 25, 50, 100 or 200 nM of short antisense compound. After the treatment period, RNA was isolated from the cells and GCGR mRNA levels were measured by quantitative real-time PCR, as described herein. GCGR mRNA levels were adjusted according to total RNA content as measured by RIBOGREEN®. Results are presented in Table 80 as percent reduction in GCGR mRNA, relative to untreated control cells.

**Q.** Which results are given for “404137 (antisense e[5mC]*eA*dG*dT*dG*dT*dG*d[5mC]*dA*d[5mC]*dA*d[5mC]*eA*eG) [compound 404137]”?
**A.** % Inhib (PTP1B mRNA) [1]: 71%; % Inhib (PTP1B mRNA) [2]: 76%

**Q.** With “ISIS 327161: GCGR; 3-10-3 MOE gapmer (antisense eA*eG*e[5mC]*dT*dG*d[5mC]*dT*dG*dT*dA*d[5mC]*eA*eT*e[5mC])” as the substance, how does the “GCGR mRNA” value ([3]; HepG2 cells, 25, 50, 100 or 200 nM) read?
**A.** reduced GCGR mRNA in a dose-dependent manner

**Q.** “ISIS 379692: SGLT2; 1-10-1 MOE gapmer (antisense eT*dG*dT*dT*d[5mC]*d[5mC]*dA*dG*d[5mC]*d[5mC]*d[5mC]*eA)” was tested. Which “% change in SGLT2 expression relative to saline” value ([4]; dose 3.125 umol/kg (head)) did it give?
**A.** +30%

**Q.** And the “% change in SGLT2 expression relative to saline” value ([4]; dose 12.5 umol/kg (head))?
**A.** −15%

**Q.** What about the “% change in SGLT2 expression relative to saline” value ([4]; dose 50 umol/kg (head)) of the same substance?
**A.** −65%

**Q.** And the “% change in SGLT2 expression relative to saline” value ([4]; dose 200 umol/kg (head))?
**A.** −80%

**Q.** What about the “SGLT2 mRNA, percent change relative to saline treated animals” value ([5]; 5 nmol/kg i.p. twice per week for three weeks) of the same substance?
**A.** −7 percent change

**Q.** And the “SGLT2 mRNA, percent change relative to saline treated animals” value ([5]; 25 nmol/kg i.p. twice per week for three weeks)?
**A.** −46 percent change

**Q.** What about the “SGLT2 mRNA, percent change relative to saline treated animals” value ([5]; 125 nmol/kg i.p. twice per week for three weeks) of the same substance?
**A.** −58 percent change

**Q.** What about the “% change in SGLT2 expression relative to saline” value [6] of the same substance?
**A.** −85%

**Q.** And the “% change in SGLT2 expression relative to saline” value ([7]; 50 nmol/kg i.p. twice per week for three weeks)?
**A.** −80%

**Q.** And the “% change in SGLT2 expression relative to saline” value ([7]; 150 nmol/kg i.p. twice per week for three weeks)?
**A.** −85%

**Q.** What about the “% change in SGLT2 expression relative to saline” value ([7]; 450 nmol/kg i.p. twice per week for three weeks) of the same substance?
**A.** −90%

**Q.** What about the “% change in SGLT2 expression relative to saline” value ([8]; 0.02 umol/kg i.p. twice per week for three weeks) of the same substance?
**A.** −55%

**Q.** And the “% change in SGLT2 expression relative to saline” value ([8]; 0.1 umol/kg i.p. twice per week for three weeks)?
**A.** −75%

**Q.** And the “% change in SGLT2 expression relative to saline” value ([8]; 0.5 umol/kg i.p. twice per week for three weeks)?
**A.** −85%

**Q.** What about the “% change in SGLT2 expression relative to saline” value ([9]; 50 nmol/kg i.p. twice per week for two weeks) of the same substance?
**A.** −52.5%

**Q.** What about the “% change in SGLT2 expression relative to saline” value ([9]; 150 nmol/kg i.p. twice per week for two weeks) of the same substance?
**A.** −70%

**Q.** And the “% change in SGLT2 expression relative to saline” value ([9]; 450 nmol/kg i.p. twice per week for two weeks)?
**A.** −80%

**Q.** For “327161 (antisense eA*eG*e[5mC]*dT*dG*d[5mC]*dT*dG*dT*dA*d[5mC]*eA*eT*e[5mC]) [compound 327161]”, which “percent reduction in GCGR mRNA” value ([3]; 25 nM) is on record?
**A.** −36

**Q.** And the “percent reduction in GCGR mRNA” value ([3]; 50 nM)?
**A.** −30

**Q.** What about the “percent reduction in GCGR mRNA” value ([3]; 100 nM) of the same substance?
**A.** −33

**Q.** And the “percent reduction in GCGR mRNA” value ([3]; 200 nM)?
**A.** −64

**Q.** What about the “percent reduction in GCGR mRNA” value ([10]; 25 nM) of the same substance?
**A.** −19

**Q.** What about the “percent reduction in GCGR mRNA” value ([10]; 50 nM) of the same substance?
**A.** −33

**Q.** What about the “percent reduction in GCGR mRNA” value ([10]; 100 nM) of the same substance?
**A.** −55

**Q.** What about the “percent reduction in GCGR mRNA” value ([10]; 200 nM) of the same substance?
**A.** −54
